The values below come from ChEMBL document CHEMBL4184243, “Optimization of antimalarial, and anticancer activities of (E)-methyl 2-(7-chloroquinolin-4-ylthio)-3-(4-hydroxyphenyl) acrylate” (Bioorg Med Chem, 2018).

Series [1] in a line: Inhibition of beta-hematin formation assessed as reduction in acetate buffer-initiated hemozoin formation measured after 48 hrs. More on the design: concentration or dose not given beside the values. Conditions: concentration not given here.
The test system of series [2] is Plasmodium berghei. Briefly: Antimalarial activity against chloroquine-susceptible Plasmodium berghei ANKA infected in Balb-C mouse assessed as parasitemia at 10 mg/kg, ip administered once daily for 4 days measured post last dose by Giemsa staining based method (reference value: 65.8 +/- 4.38%). The class given is functional.
For series [3], the system named is Plasmodium berghei. Briefly: Antimalarial activity against chloroquine-susceptible Plasmodium berghei ANKA infected in Balb-C mouse assessed as mean survival days at 10 mg/kg, ip administered once daily for 4 days (reference value: 8.4 +/- 0.15 day). The class given is functional.
The subject of a further series is Lymphocyte. In words: Cytotoxicity against human lymphocytes after 24 to 48 hrs by MTT assay. The class given is cell-based.
Series [4] has as its system Jurkat E6.1. In words: Cytotoxicity against human Jurkat E6-1 cells after 24 hrs by MTT assay. The class given is functional, cell-based. Conditions: Jurkat E6.1, 24 h.
The test system of series [5] is HL-60. In words: Cytotoxicity against human HL60 cells after 24 hrs by MTT assay. The class given is functional, cell-based. Conditions: HL-60, 24 h.
Series [6] in a line: Selectivity index, ratio of IC50 for human lymphocytes to IC50 for human Jurkat E6-1 cells. The class given is toxicity. As to conditions: human lymphocytes versus Jurkat E6-1 cells, read-out: Ratio IC50.
A short description of series [7]: Selectivity index, ratio of IC50 for human lymphocytes to IC50 for human HL60 cells. The class given is toxicity. Conditions: human lymphocytes versus HL60 cells, read-out: Ratio IC50.
Series [8] can be described thus: Safety index, ratio of test compound IC50 to doxorubicin IC50 for human lymphocytes. The class given is ADME, cell-based, Lymphocyte. Conditions: read-out: Ratio IC50.
The test system of series [9] is Jurkat E6.1. In words: Induction of apoptosis in human Jurkat E6-1 cells assessed as necrotic cells at 5 uM after 24 hrs by Annexin-V-FITC/propidium iodide staining based flow cytometric analysis (reference value: 1.26 +/- 0.24 %). The class given is functional.
Series [10] concerns Jurkat E6.1. Briefly: Induction of apoptosis in human Jurkat E6-1 cells assessed as late apoptotic cells at 5 uM after 24 hrs by Annexin-V-FITC/propidium iodide staining based flow cytometric analysis (reference value: 0.73 +/- 0.14 %). The class given is functional.
Series [11] relates to Jurkat E6.1. Briefly: Induction of apoptosis in human Jurkat E6-1 cells assessed as early apoptotic cells at 5 uM after 24 hrs by Annexin-V-FITC/propidium iodide staining based flow cytometric analysis (reference value: 0.5 +/- 0.07 %). The class given is functional.
Series [12] concerns HL-60. In words: Induction of apoptosis in human HL60 cells assessed as necrotic cells at 5 uM after 24 hrs by Annexin-V-FITC/propidium iodide staining based flow cytometric analysis (reference value: 1.96 +/- 0.33 %). The class given is functional.
Series [13] has as its system HL-60. Briefly: Induction of apoptosis in human HL60 cells assessed as late apoptotic cells at 5 uM after 24 hrs by Annexin-V-FITC/propidium iodide staining based flow cytometric analysis (reference value: 0.85 +/- 0.13 %). The class given is functional.
Series [14] concerns HL-60. In words: Induction of apoptosis in human HL60 cells assessed as early apoptotic cells at 5 uM after 24 hrs by Annexin-V-FITC/propidium iodide staining based flow cytometric analysis (reference value: 0.36 +/- 0.02 %). The class given is functional.
Series [15] deals with Mus musculus. Briefly: Toxicity in Balb-C mouse infected with chloroquine-susceptible Plasmodium berghei ANKA assessed as survival at 20 mg/kg, ip administered once daily for 4 days measured at 30 days post infection. Conditions: in vivo, 720 h. The class given is organism-based.
Series [16] concerns Mus musculus. In words: Toxicity in Balb-C mouse infected with chloroquine-susceptible Plasmodium berghei ANKA assessed as effect on body weight at 20 mg/kg, ip administered once daily for 4 days measured at 30 days post infection. The class given is organism-based. Conditions: in vivo, 720 h.
Another series relates to Jurkat. Briefly: Cytotoxicity against human Jurkat cells after 20 hrs by propidium iodide staining based flow cytometry. The class given is functional, cell-based.
Series [17] has as its system Jurkat E6.1. Briefly: Induction of apoptosis in human Jurkat E6-1 cells assessed as necrotic cells at 100 uM after 24 hrs by Annexin-V-FITC/propidium iodide staining based flow cytometric analysis (reference value: 1.26 +/- 0.24 %). The class given is functional.
Series [18] relates to Jurkat E6.1. In words: Induction of apoptosis in human Jurkat E6-1 cells assessed as late apoptotic cells at 100 uM after 24 hrs by Annexin-V-FITC/propidium iodide staining based flow cytometric analysis (reference value: 0.73 +/- 0.14 %). The class given is functional.
Series [19] relates to Jurkat E6.1. Briefly: Induction of apoptosis in human Jurkat E6-1 cells assessed as early apoptotic cells at 100 uM after 24 hrs by Annexin-V-FITC/propidium iodide staining based flow cytometric analysis (reference value: 0.5 +/- 0.07 %). The class given is functional.
Series [20] concerns HL-60. In words: Induction of apoptosis in human HL60 cells assessed as necrotic cells at 100 uM after 24 hrs by Annexin-V-FITC/propidium iodide staining based flow cytometric analysis (reference value: 1.96 +/- 0.33 %). The class given is functional.
Series [21] concerns HL-60. In words: Induction of apoptosis in human HL60 cells assessed as late apoptotic cells at 100 uM after 24 hrs by Annexin-V-FITC/propidium iodide staining based flow cytometric analysis (reference value: 0.85 +/- 0.13 %). The class given is functional.
The test system of series [22] is HL-60. In words: Induction of apoptosis in human HL60 cells assessed as early apoptotic cells at 100 uM after 24 hrs by Annexin-V-FITC/propidium iodide staining based flow cytometric analysis (reference value: 0.36 +/- 0.02 %). The class given is functional.

With `COC(=O)/C(=C\c1ccc(OC(=O)c2ccc(OC)c(OC)c2OC)cc1)Sc1ccnc2cc(Cl)ccc12`, the inhibition in series [1] is 85.1%. For the same molecule, the Activity with Plasmodium berghei [2] came out at 1%; in the series with Jurkat E6.1 [9], 55.6%; in the series on Jurkat E6.1 [10] it was 4.12%; in the series on Jurkat E6.1 [11], 0.58%; with HL-60 [12], 62.1%; with HL-60 [13], 7.38%. The values for the Activity in the series on HL-60 [14], in the series with Mus musculus [15] and with Mus musculus [16] were 0.75%, “Non-Toxic” and “Non-Toxic”, respectively. In the series on Plasmodium berghei [3], the MSD turned out to be 29.83 days. In addition, the IC50 came to 22.4 µM in the series on Lymphocyte, 2.41 µM in the series with Jurkat E6.1 [4] and 2.08 µM in the series with HL-60 [5]. Further, the values for the selectivity ratio in [6], in series [7] and in [8] were 9.27, 10.8 and 5.1, respectively.

`CCN(CC)CCCC(C)Nc1ccnc2cc(Cl)ccc12` (stereo not given) [CHLOROQUINE]: the IC50 with Jurkat was 95 µM; in the series with Lymphocyte it was greater than 100 µM; with Jurkat E6.1 [4] it was 83.6 µM; in the series on HL-60 [5], greater than 100 µM. The inhibition in series [1] is 98.5%. For the same molecule, the Activity in the series on Plasmodium berghei [2] is given as 0.8%; in the series with Jurkat E6.1 [17], 23.7%; in the series with Jurkat E6.1 [18], 7.85%; in the series with Jurkat E6.1 [19], 1.4%; in the series on HL-60 [20] it was 23.6%; in the series on HL-60 [21], 2.14%. Moreover, the Activity with HL-60 [22] came out at 0.66%. For the same molecule, in the series on Plasmodium berghei [3], the MSD is 29.98 days.
